Article PMC7529893, “Structural basis for substrate recognition and chemical inhibition of oncogenic MAGE ubiquitin ligases” (Nature Communications, 2020)

molecular target: T1, MAGE-A11:PCF11 interaction (GST-MAGE-A11 and FAM-PCF11_4) (Homo sapiens, UniProt P43364); assay: TR-FRET primary / single point screen at 15 µM; assay type: binding; conditions: single point TR-FRET screening of 797 quinoline compounds against MAGE-A11:PCF11
T1 construct: GST-MAGE-A11 MHD (human MAGE-A11 MHD amino acid 218-429); made in house; host or cells: E. coli BL21(DE3)
T1 sequence (P43364 218-429): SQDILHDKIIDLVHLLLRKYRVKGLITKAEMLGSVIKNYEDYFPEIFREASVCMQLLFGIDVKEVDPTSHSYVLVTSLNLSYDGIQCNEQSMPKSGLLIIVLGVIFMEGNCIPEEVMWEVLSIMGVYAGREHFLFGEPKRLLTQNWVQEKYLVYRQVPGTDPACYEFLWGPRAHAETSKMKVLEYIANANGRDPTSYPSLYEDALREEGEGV
Experimental: The TR-FRET assay buffer with a formula of 50 mM Tris pH 7.5, 20 mM MgCl2, 0.1 mg/ml BSA and 1 mM DTT was freshly prepared before each experiment. All TR-FRET assays were performed in black 384-well plates with 20 µl/well assay volume in the TR-FRET assay buffer at room temperature (~25 °C). All peptides or compounds were solubilized in DMSO. To test the competitive activity of peptides or compounds against the interaction between GST-MAGE-A11 MHD and FAM-PCF11_4 peptide, 10 µl/well peptide or compound at specified concentration was dispensed into a black 384-well low volume plate, followed by 5 µl/well FAM-PCF11_4 (800 nM), 5 µl/well Tb-anti-GST (20 nM), and GST-MAGE-A11 MHD (20 nM). The assay components in each well was then mixed by shaking the plate on an IKA MTS 2/4 digital microtiter plate shaker (IKA Works; Wilmington, NC, USA) for 1 min. The plate was further centrifuged in an Eppendorf 5810 centrifuge with an A-4-62 swing-bucket rotor (Eppendorf AG, Hamburg, Germany) at 201 g for 30 s. The plate was then incubated for 90 min with a lid to avoid light exposure to the assay components. After incubation, the fluorescent emission signals at 520 nm and 490 nm channels of individual wells were measured with a PHERAstar FS plate reader (BMG Labtech; Durham, NC, USA) by using a 340 nm excitation filter, 100 µs delay time, and 200 µs integration time. The TR-FRET fluorescence emission ratio (TR-FRET signal) for each well was presented as 10,000 × 520 nm/490 nm, which was used directly for curve fitting, or further converted to %Inhibition based on the respective positive and negative controls. The graphic software GraphPad Prism 4.81 (GraphPad Software; La Jolla, CA, USA) was used to generate curves and derive IC50 values of tested peptides or compounds, if applicable. TR-FRET screen for identifying MAGE-A11 small molecule inhibitors was performed as follows. The primary one-concentration screening and subsequent 10 or 20-concentration dose-response tests were accomplished with an automated High Throughput Screening system (HighRes Biosolutions, Beverly, MA)[30]. In the primary screening, 15 µl/well FAM-PCF11_4 (267 nM) was first dispensed with a Multidrop Combi Reagent Dispenser (Thermo Fisher Scientific, Waltham, MA) to black 384-well low-volume assay plates. The plates were spun down with a Velocity11 VSpin microplate centrifuge (Agilent Technologies, Santa Clara, CA). In total, 30 nl/well of 10 mM compound/DMSO solutions, or DMSO alone, were transferred from compound plates (the St. Jude FDA drug and bioactive library, Drug-like library and Lead-like library) or a control plate to the assay plates with a Pin Tool (V&P Scientific, San Diego, CA). The compounds were arrayed in columns 3–12 and columns 15–24 of compound plates. The controls were arrayed in columns 1, 2, 13, and 14 of a compound plate. In all, 5 µl/well Tb-anti-GST (20 nM) and GST-MAGE-A11 (20 nM) or 5 µl/well Tb-anti-GST (20 nM) alone was then dispensed to selected wells with a Multidrop Combi Reagent Dispenser. The final assay volume was 20 µl/well. […] The final tested compound concentration was 15 µM. The final FAM-PCF11_4 concentration was 200 nM and the final Tb-anti-GST concentration was 5 nM. The final GST-MAGE-A11 concentration was 5 nM except for those selected positive control wells in which GST-MAGE-A11 was not presented. The plates were then shaken with a big bear shaker (Big Bear Automation, Santa Clara, California) and spun down with the Velocity11 VSpin microplate centrifuge for 20 s. The plates were then incubated at room temperature in a Liconic incubator (Liconic US, Woburn, MA) for 90 min. The TR-FRET signals for individual wells were measured with a PHERAstar FS plate reader. The %Inhibition of each tested inhibitor was calculated by using Eq. 1. Those inhibitors with %Inhibition >30% in the primary screening were selected for further dose-response test, along with additional newly synthesized compounds. […]

percent inhibition (TR-FRET)	Structure (SMILES)
-56.5833	CCc1ccc(S(=O)(=O)c2cnc3ccccc3c2N2CCN(c3ccccc3F)CC2)cc1 [SJ000117079]
3.172	Cc1ccc(S(=O)(=O)c2cnc3ccccc3c2N2CCN(c3ccc(C)cc3C)CC2)cc1 [SJ000117080]
-13.1252	Cc1cccc(N2CCN(c3c(S(=O)(=O)c4ccccc4)cnc4ccccc34)CC2)c1C [SJ000117081]
-15.3776	Cc1ccc(C)c(N2CCN(c3c(S(=O)(=O)c4ccccc4)cnc4ccc(F)cc34)CC2)c1 [SJ000117083]
2.443	Cc1ccc(S(=O)(=O)c2cnc3ccccc3c2N2CCN(c3cc(C)ccc3C)CC2)cc1 [SJ000117084]
-82.2209	COc1ccc2ncc(S(=O)(=O)c3ccc(C)cc3)c(N3CCN(Cc4ccccc4)CC3)c2c1 [SJ000117085]
-55.2584	CCc1ccc(S(=O)(=O)c2cnc3ccccc3c2N2CCN(Cc3ccccc3)CC2)cc1 [SJ000117086]
-0.207	C=CCOCC(O)CN1CCN(c2cc(C)nc3ccccc23)CC1 (stereo not shown) [SJ000227652]
-4.954	Cc1cc(N2CCN(CC(O)CO)CC2)c2ccccc2n1 (stereo not shown) [SJ000227653]
-3.251	Cc1cc(N2CCN(CC(O)COCC(C)C)CC2)c2ccccc2n1 (stereo not shown) [SJ000227654]
6.55	C#CCOCC(O)CN1CCN(c2cc(C)nc3ccccc23)CC1 (stereo not shown) [SJ000227655]
-2.128	C=CCOCC(O)CN1CCN(c2cc(C(F)(F)F)nc3ccccc23)CC1 (stereo not shown) [SJ000228017]
-9.5157	C#CCOCC(O)CN1CCN(c2cc(C(F)(F)F)nc3ccccc23)CC1 (stereo not shown) [SJ000228018]
-30.2832	O=S(=O)(c1ccccc1)c1cnc2ccc(Cl)cc2c1N1CCN(Cc2ccccc2)CC1 [SJ000247242]
-2.393	COc1ccc2ncc(C(=O)c3ccccc3)c(N3CCN(C)CC3)c2c1 [SJ000247245]
-71.1577	COc1ccc2ncc(S(=O)(=O)c3ccccc3)c(N3CCN(Cc4ccccc4)CC3)c2c1 [SJ000247248]
-15.9076	CCOc1ccc2ncc(S(=O)(=O)c3ccccc3)c(N3CCN(Cc4ccccc4)CC3)c2c1 [SJ000247249]
2.673	Cc1ccc2ncc(S(=O)(=O)c3ccccc3)c(N3CCN(Cc4ccccc4)CC3)c2c1 [SJ000247256]
-62.2806	O=S(=O)(c1ccccc1)c1cnc2ccc(F)cc2c1N1CCN(Cc2ccccc2)CC1 [SJ000247257]
-13.5889	Cc1ccc(S(=O)(=O)c2cnc3ccccc3c2N2CCN(C)CC2)cc1 [SJ000247268]
-2.261	CCc1ccc2ncc(C(=O)c3ccccc3)c(N3CCN(CC)CC3)c2c1 [SJ000247281]
-0.2733	CCOc1ccc2ncc(C(=O)c3ccccc3)c(N3CCN(CC)CC3)c2c1 [SJ000247283]

The remaining lines, values behind:

Structure (SMILES)	percent inhibition (TR-FRET)
COc1ccc2ncc(S(=O)(=O)c3ccc(C)c(C)c3)c(N3CCN(c4ccccc4F)CC3)c2c1 [SJ000117078]	-8.289
COc1ccc2ncc(S(=O)(=O)c3ccccc3)c(N3CCN(c4cccc(C)c4C)CC3)c2c1 [SJ000117082]	-241.81
CCOC(=O)c1cnc2ccc(C(=O)OC)cc2c1NCCN1CCOCC1 [SJ000127079]	-7.813
CCOC(=O)c1cnc2c(C)cc(Cl)cc2c1NCCN1CCOCC1 [SJ000129560]	4.96
CCOC(=O)c1cnc2c(C)c(C)ccc2c1NCCN(C)C [SJ000134078]	8.5376
CCOC(=O)c1cnc2c(Cl)cccc2c1NCCN1CCOCC1 [SJ000163436]	-6.529
CCOC(=O)c1cnc2c(C)cc(C)cc2c1NCCN1CCOCC1 [SJ000172983]	8.869
CCOC(=O)c1cnc2c(Cl)cc(Cl)cc2c1NCCN1CCOCC1 [SJ000175864]	-13.059
CCOC(=O)c1cnc2c(C(=O)OC)cccc2c1NCCN1CCOCC1 [SJ000184799]	4.043
CCOC(=O)c1cnc2ccc(Cl)cc2c1N1CCN(C)CC1 [SJ000187322]	-0.9277
Cc1ccc(S(=O)(=O)N2CCN(c3ccnc4cc(Cl)ccc34)CC2)cc1 [SJ000192519]	-38.6966
CC(=O)Nc1ccc(S(=O)(=O)N2CCN(c3ccnc4cc(Cl)ccc34)CC2)cc1 [SJ000193862]	-16.1911
COc1ccc(S(=O)(=O)N2CCN(c3ccnc4cc(Cl)ccc34)CC2)cc1 [SJ000199955]	-32.0719
O=S(=O)(c1ccc(Br)cc1)N1CCN(c2ccnc3cc(Cl)ccc23)CC1 [SJ000201754]	-16.7513
O=S(=O)(c1ccc(F)cc1)N1CCN(c2ccnc3cc(Cl)ccc23)CC1 [SJ000203833]	-50.6426
O=S(=O)(c1ccc(Cl)cc1)N1CCN(c2ccnc3cc(Cl)ccc23)CC1 [SJ000204656]	-34.3905
CCOc1ccc2ncc(C(=O)c3ccc(OC)cc3)c(N3CCN(CC)CC3)c2c1 [SJ000247243]	-9.084
CCOc1ccc2ncc(C(=O)c3ccc(C)cc3)c(N3CCN(C)CC3)c2c1 [SJ000247254]	-10.6078
CCOc1ccc2ncc(C(=O)c3ccc(OC)cc3)c(N3CCN(C)CC3)c2c1 [SJ000247277]	-18.955
CCN1CCN(c2c(C(=O)c3ccc(C)cc3)cnc3ccc(OC)cc23)CC1 [SJ000247282]	3.9003

same assay, conditions: single point TR-FRET screening of quinoline compounds against MAGE-A11:PCF11; 15 µM

percent inhibition (TR-FRET)	Structure (SMILES)
2.945	CCOC(=O)c1cnc2ccc(OC)cc2c1NCCCN1CCOCC1 [SJ000127046]
-23.261	CCOC(=O)c1cnc2c(C)c(Cl)ccc2c1NCCCN1CCOCC1 [SJ000129912]
10.0613	CCOC(=O)c1cnc2c(C(F)(F)F)cccc2c1NCCCN1CCOCC1 [SJ000131358]
6.494	CCOC(=O)c1cnc2c(C)cc(C)cc2c1NCCCN1CCOCC1 [SJ000173725]
-10.5199	CCOC(=O)c1cnc2c(C)cc(Cl)cc2c1NCCCN1CCOCC1 [SJ000174094]
-2.118	CCOC(=O)c1cnc2c(Cl)cc(Cl)cc2c1NCCCN1CCOCC1 [SJ000176476]
-22.0025	CCOC(=O)c1cnc2ccc(Br)cc2c1NCCCN1CCOCC1 [SJ000176507]
11.255	CCOC(=O)c1ccc2ncc(C(=O)OCC)c(NCCCN3CCOCC3)c2c1 [SJ000176583]
3.635	CCOC(=O)c1cnc2c(OC)cccc2c1NCCCN1CCOCC1 [SJ000180455]
-4.499	CCOC(=O)c1cnc2c(CC)cccc2c1NCCCN1CCOCC1 [SJ000185196]
